Source: ChEMBL document CHEMBL1909046, “DrugMatrix in vitro pharmacology data”

Legend:
[1] = DRUGMATRIX: Serotonin (5-Hydroxytryptamine) 5-HT3 radioligand binding (ligand: [3H] GR-65630); format: cell membranes, Membrane; details: hek293; Not Active = under 50% inhibition at 10 µM
[2] = biological target: T1, Cathepsin G (Homo sapiens, UniProt P08311); format: tissue-based; details: neutrophil;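 also: inhibition of Cathepsin G enzyme activity, tested on an AMC-conjugated peptide substrate; in other assays of this panel Not Active means under 50% inhibition at 10 µM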
T1 sequence (P08311 whole entry): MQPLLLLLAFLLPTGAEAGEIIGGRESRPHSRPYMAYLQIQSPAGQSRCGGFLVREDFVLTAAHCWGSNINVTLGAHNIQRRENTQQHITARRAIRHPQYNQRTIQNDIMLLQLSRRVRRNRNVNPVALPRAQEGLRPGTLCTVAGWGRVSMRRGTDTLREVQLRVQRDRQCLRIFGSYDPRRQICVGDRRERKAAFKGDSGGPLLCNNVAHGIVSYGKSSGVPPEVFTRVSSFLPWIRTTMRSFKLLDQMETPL

[3] = biological target: Cytochrome P450 2C9 (Homo sapiens, UniProt P11712); details: bti-tn-5b1-4; also: in other assays of this panel Not Active means under 50% inhibition at 10 µM
Sequence of Cytochrome P450 2C9 (P11712 whole entry): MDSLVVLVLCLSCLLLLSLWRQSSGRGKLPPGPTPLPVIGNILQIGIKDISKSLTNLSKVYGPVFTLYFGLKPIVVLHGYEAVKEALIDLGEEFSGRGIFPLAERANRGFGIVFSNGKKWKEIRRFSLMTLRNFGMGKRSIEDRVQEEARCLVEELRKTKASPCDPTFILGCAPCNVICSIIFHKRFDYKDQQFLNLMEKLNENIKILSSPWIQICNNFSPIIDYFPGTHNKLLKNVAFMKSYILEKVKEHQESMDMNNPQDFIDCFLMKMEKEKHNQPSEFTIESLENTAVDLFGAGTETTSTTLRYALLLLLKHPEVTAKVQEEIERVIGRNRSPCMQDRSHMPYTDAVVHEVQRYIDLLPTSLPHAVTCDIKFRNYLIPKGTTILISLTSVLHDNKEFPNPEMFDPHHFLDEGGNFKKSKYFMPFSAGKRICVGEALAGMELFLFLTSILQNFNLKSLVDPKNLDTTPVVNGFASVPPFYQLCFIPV

[4] = biological target: Voltage-gated inwardly rectifying potassium channel KCNH2 (Homo sapiens, UniProt Q12809); details: hek293; also: in other assays of this panel Not Active means under 50% inhibition at 10 µM
Sequence of Voltage-gated inwardly rectifying potassium channel KCNH2 (Q12809 whole entry): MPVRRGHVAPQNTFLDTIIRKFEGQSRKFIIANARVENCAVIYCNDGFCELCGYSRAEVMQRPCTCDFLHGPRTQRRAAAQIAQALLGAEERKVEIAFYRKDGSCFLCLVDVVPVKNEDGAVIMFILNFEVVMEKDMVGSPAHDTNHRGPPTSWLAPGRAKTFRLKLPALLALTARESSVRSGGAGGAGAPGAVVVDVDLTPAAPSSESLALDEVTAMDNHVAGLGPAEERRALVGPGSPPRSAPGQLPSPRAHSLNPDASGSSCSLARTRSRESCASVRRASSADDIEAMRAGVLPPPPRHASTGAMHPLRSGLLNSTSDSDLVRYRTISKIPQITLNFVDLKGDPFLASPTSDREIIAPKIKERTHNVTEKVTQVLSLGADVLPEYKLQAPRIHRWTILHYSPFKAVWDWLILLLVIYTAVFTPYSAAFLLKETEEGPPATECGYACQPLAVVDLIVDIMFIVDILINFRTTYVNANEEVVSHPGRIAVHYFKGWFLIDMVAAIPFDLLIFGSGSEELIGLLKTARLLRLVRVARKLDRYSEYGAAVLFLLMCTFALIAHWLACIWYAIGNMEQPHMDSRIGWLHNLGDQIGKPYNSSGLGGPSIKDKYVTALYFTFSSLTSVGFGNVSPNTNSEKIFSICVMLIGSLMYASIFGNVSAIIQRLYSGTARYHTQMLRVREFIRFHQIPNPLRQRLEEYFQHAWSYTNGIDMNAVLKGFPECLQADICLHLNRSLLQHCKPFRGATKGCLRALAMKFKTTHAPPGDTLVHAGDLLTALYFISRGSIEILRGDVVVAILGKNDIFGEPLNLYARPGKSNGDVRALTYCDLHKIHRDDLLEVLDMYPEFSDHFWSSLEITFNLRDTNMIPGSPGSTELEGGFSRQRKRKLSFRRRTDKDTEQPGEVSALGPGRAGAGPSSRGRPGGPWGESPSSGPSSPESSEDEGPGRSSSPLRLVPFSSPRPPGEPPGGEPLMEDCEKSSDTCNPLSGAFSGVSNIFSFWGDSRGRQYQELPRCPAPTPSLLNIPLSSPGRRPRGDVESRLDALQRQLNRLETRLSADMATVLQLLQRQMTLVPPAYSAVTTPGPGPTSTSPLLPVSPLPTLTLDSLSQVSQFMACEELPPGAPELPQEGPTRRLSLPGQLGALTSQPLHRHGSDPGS

[5] = biological target: T2, Estrogen receptor (Homo sapiens, UniProt P03372); details: sf9; also: in other assays of this panel Not Active means under 50% inhibition at 10 µM
T2 sequence (P03372 whole entry): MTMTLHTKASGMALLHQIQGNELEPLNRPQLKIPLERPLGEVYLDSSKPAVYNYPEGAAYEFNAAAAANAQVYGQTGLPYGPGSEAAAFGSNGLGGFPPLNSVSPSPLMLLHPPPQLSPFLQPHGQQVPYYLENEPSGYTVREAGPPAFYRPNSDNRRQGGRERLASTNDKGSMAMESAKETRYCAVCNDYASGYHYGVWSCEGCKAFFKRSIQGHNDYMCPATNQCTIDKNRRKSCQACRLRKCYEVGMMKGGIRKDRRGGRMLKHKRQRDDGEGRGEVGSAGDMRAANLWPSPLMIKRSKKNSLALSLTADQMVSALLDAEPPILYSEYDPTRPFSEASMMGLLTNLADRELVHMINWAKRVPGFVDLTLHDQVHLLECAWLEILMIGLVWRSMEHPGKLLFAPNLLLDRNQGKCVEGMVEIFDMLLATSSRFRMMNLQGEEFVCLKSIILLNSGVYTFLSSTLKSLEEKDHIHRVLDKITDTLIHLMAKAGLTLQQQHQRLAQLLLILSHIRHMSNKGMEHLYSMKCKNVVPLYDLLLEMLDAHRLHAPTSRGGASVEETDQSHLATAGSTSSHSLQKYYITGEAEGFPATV

[6] = biological target: Nitric oxide synthase 1 (Rattus norvegicus, UniProt P29476); format: tissue-based, Cerebellum; also: in other assays of this panel Not Active means under 50% inhibition at 10 µM
Sequence of Nitric oxide synthase 1 (P29476 whole entry): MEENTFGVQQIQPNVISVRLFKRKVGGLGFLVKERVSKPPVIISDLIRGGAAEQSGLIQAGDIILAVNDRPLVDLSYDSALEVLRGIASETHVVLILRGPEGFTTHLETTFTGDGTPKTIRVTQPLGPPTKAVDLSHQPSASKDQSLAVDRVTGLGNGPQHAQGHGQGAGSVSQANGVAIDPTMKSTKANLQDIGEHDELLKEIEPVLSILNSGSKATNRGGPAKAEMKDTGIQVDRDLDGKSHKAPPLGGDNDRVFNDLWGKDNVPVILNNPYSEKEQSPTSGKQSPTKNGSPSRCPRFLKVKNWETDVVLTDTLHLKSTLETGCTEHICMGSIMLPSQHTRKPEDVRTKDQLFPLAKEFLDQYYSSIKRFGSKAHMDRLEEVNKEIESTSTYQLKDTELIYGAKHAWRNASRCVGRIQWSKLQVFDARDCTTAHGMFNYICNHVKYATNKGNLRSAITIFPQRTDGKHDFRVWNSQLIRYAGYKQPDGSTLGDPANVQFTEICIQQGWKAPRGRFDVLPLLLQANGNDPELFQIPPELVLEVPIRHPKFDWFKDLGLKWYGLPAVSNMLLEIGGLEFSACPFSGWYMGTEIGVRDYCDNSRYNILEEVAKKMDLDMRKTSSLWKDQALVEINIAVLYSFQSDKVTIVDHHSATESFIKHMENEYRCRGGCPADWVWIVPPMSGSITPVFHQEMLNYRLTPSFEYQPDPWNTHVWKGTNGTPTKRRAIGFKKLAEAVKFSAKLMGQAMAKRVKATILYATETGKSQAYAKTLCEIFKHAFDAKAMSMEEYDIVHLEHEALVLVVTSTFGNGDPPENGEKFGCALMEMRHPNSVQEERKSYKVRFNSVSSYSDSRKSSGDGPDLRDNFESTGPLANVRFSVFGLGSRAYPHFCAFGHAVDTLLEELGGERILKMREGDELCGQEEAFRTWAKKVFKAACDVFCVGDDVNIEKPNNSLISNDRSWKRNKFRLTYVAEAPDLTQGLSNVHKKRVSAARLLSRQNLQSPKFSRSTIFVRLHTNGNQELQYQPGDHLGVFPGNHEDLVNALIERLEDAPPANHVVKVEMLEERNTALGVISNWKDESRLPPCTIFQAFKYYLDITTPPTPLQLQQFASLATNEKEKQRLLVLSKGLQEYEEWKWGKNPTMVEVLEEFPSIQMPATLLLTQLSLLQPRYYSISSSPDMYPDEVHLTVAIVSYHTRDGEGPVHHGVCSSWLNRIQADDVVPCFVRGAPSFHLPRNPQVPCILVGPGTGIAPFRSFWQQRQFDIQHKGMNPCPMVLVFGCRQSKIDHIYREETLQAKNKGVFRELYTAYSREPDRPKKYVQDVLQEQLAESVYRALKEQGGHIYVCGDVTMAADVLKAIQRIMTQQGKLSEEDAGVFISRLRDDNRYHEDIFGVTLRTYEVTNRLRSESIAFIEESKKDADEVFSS

[7] = DRUGMATRIX: Leukotriene, BLT (LTB4) radioligand binding (ligand: [3H]LTB4); format: cell membranes, Membrane; details: u-937; Not Active = under 50% inhibition at 10 µM
[8] = biological target: Cannabinoid receptor 1 (Homo sapiens, UniProt P21554); format: cell membranes, Chem-1, Membrane; details: chem-1; also: in other assays of this panel Not Active means under 50% inhibition at 10 µM
Sequence of Cannabinoid receptor 1 (P21554 whole entry): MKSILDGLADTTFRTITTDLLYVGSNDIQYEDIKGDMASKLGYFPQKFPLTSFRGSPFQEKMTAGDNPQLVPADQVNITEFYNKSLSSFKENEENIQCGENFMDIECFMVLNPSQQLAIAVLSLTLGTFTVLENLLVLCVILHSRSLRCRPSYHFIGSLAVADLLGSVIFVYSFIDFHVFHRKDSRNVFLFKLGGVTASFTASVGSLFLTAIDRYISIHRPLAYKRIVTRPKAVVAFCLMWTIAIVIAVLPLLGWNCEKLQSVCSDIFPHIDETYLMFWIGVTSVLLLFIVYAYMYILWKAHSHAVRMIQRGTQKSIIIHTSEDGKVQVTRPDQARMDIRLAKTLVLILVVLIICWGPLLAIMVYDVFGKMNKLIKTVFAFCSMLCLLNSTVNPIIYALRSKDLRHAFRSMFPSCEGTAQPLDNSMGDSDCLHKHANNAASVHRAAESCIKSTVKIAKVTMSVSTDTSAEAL

[9] = biological target: T3, Thromboxane-A synthase (Homo sapiens, UniProt P24557); assay: biochemical; format: tissue-based, Platelet; details: platelet
T3 sequence (P24557 whole entry): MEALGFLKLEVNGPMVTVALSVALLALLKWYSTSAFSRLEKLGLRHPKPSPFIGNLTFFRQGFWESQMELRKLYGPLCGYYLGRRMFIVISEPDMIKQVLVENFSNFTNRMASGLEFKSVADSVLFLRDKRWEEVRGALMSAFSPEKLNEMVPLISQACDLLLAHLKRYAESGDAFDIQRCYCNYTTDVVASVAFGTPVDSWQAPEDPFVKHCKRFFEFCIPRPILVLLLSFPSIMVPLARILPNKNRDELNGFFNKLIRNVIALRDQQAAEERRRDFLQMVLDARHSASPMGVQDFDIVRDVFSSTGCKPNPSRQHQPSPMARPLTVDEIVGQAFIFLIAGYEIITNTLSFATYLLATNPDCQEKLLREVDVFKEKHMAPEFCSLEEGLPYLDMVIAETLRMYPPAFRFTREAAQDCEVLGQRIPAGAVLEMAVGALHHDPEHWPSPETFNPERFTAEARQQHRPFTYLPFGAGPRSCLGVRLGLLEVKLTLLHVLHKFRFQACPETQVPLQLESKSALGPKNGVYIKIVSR

CCC1(C)CC(=O)NC1=O (stereo unspecified) [ETHOSUXIMIDE]
Not Active: IC50 [1] | Ki [1] | IC50 [2] | IC50 [3] | Ki [3] | IC50 [4] | Ki [4] | IC50 [5] | IC50 [6] | IC50 [7] | Ki [7] | IC50 [8] | IC50 [9]

C#C[C@]1(OC(C)=O)CC[C@H]2[C@@H]3CCC4=C[C@@H](OC(C)=O)CC[C@@H]4[C@H]3CC[C@@]21C [ETHYNODIOL DIACETATE]
Not Active: IC50 [1] | Ki [1] | IC50 [2] | IC50 [3] | Ki [3] | IC50 [4] | Ki [4] | IC50 [5] | IC50 [6] | IC50 [7] | Ki [7] | IC50 [8] | IC50 [9]

C=CCc1ccc(O)c(OC)c1 [EUGENOL]
Not Active: IC50 [1] | Ki [1] | IC50 [2] | IC50 [3] | Ki [3] | IC50 [4] | Ki [4] | IC50 [5] | IC50 [6] | IC50 [7] | Ki [7] | IC50 [8] | IC50 [9]

Nc1ccn([C@@H]2O[C@H](CO)[C@@H](O)C2(F)F)c(=O)n1 [GEMCITABINE]
Not Active: IC50 [1] | Ki [1] | IC50 [2] | IC50 [3] | Ki [3] | IC50 [4] | Ki [4] | IC50 [5] | IC50 [6] | IC50 [7] | Ki [7] | IC50 [8] | IC50 [9]

CC(C)NNC(=O)c1ccncc1 [IPRONIAZID]
Not Active: IC50 [1] | Ki [1] | IC50 [2] | IC50 [3] | Ki [3] | IC50 [4] | Ki [4] | IC50 [5] | IC50 [6] | IC50 [7] | Ki [7] | IC50 [8] | IC50 [9]

O=c1cc(N2CCOCC2)oc2c(-c3ccccc3)cccc12 [LY-294002]
Not Active: IC50 [1] | Ki [1] | IC50 [2] | IC50 [3] | Ki [3] | IC50 [4] | Ki [4] | IC50 [5] | IC50 [6] | IC50 [7] | Ki [7] | IC50 [8] | IC50 [9]

COc1ccc2[nH]cc(CCNC(C)=O)c2c1 [MELATONIN]
Not Active: IC50 [1] | Ki [1] | IC50 [2] | IC50 [3] | Ki [3] | IC50 [4] | Ki [4] | IC50 [5] | IC50 [6] | IC50 [7] | Ki [7] | IC50 [8] | IC50 [9]

NC(=O)C[S+]([O-])C(c1ccccc1)c1ccccc1 (stereo unspecified) [MODAFINIL]
Not Active: IC50 [1] | Ki [1] | IC50 [2] | IC50 [3] | Ki [3] | IC50 [4] | Ki [4] | IC50 [5] | IC50 [6] | IC50 [7] | Ki [7] | IC50 [8] | IC50 [9]

O=C(O)c1cccnc1Nc1cccc(C(F)(F)F)c1 [NIFLUMIC ACID]
Not Active: IC50 [1] | Ki [1] | IC50 [2] | IC50 [3] | Ki [3] | IC50 [4] | Ki [4] | IC50 [5] | IC50 [6] | IC50 [7] | Ki [7] | IC50 [8] | IC50 [9]

C#CC1(O)CC[C@H]2[C@@H]3CCC4=CC(=O)CC[C@@H]4[C@H]3CC[C@@]21CC (stereo partly specified) [NORGESTREL]
Not Active: IC50 [1] | Ki [1] | IC50 [2] | IC50 [3] | Ki [3] | IC50 [4] | Ki [4] | IC50 [5] | IC50 [6] | IC50 [7] | Ki [7] | IC50 [8] | IC50 [9]

COC(=O)Nc1nc2ccc([S+]([O-])c3ccccc3)cc2[nH]1 (stereo unspecified) [OXFENDAZOLE]
Not Active: IC50 [1] | Ki [1] | IC50 [2] | IC50 [3] | Ki [3] | IC50 [4] | Ki [4] | IC50 [5] | IC50 [6] | IC50 [7] | Ki [7] | IC50 [8] | IC50 [9]

CC(=O)O[C@H]1C(=O)[C@@]2(C)[C@H]([C@H](OC(=O)c3ccccc3)[C@]3(O)C[C@H](OC(=O)[C@H](O)[C@@H](NC(=O)c4ccccc4)c4ccccc4)C(C)=C1C3(C)C)[C@]1(OC(C)=O)CO[C@@H]1C[C@@H]2O [PACLITAXEL]
Not Active: IC50 [1] | Ki [1] | IC50 [2] | IC50 [3] | Ki [3] | IC50 [4] | Ki [4] | IC50 [5] | IC50 [6] | IC50 [7] | Ki [7] | IC50 [8] | IC50 [9]

C[n+]1ccc(-c2cc[n+](C)cc2)cc1.[Cl-].[Cl-] [PARAQUAT DICHLORIDE]
Not Active: IC50 [1] | Ki [1] | IC50 [2] | IC50 [3] | Ki [3] | IC50 [4] | Ki [4] | IC50 [5] | IC50 [6] | IC50 [7] | Ki [7] | IC50 [8] | IC50 [9]

C[n+]1ccccc1/C=N/O.[Cl-] [PRALIDOXIME CHLORIDE]
Not Active: IC50 [1] | Ki [1] | IC50 [2] | IC50 [3] | Ki [3] | IC50 [4] | Ki [4] | IC50 [5] | IC50 [6] | IC50 [7] | Ki [7] | IC50 [8] | IC50 [9]

C[C@]12C=CC(=O)C=C1CC[C@@H]1[C@@H]2[C@@H](O)C[C@@]2(C)[C@H]1CC[C@]2(O)C(=O)CO [PREDNISOLONE]
Not Active: IC50 [1] | Ki [1] | IC50 [2] | IC50 [3] | Ki [3] | IC50 [4] | Ki [4] | IC50 [5] | IC50 [6] | IC50 [7] | Ki [7] | IC50 [8] | IC50 [9]

CC(=O)[C@H]1[C@H](C#N)C[C@H]2[C@@H]3CC=C4C[C@@H](O)CC[C@]4(C)[C@H]3CC[C@@]21C [PREGNENOLONE CARBONITRILE]
Not Active: IC50 [1] | Ki [1] | IC50 [2] | IC50 [3] | Ki [3] | IC50 [4] | Ki [4] | IC50 [5] | IC50 [6] | IC50 [7] | Ki [7] | IC50 [8] | IC50 [9]

Oc1cccc(O)c1O [PYROGALLOL]
Not Active: IC50 [1] | Ki [1] | IC50 [2] | IC50 [3] | Ki [3] | IC50 [4] | Ki [4] | IC50 [5] | IC50 [6] | IC50 [7] | Ki [7] | IC50 [8] | IC50 [9]
